According to US20230265116A1, “DEGRADATION OF (EGFR) BY CONJUGATION OF EGFR INHIBITORS WITH E3 LIGASE LIGAND AND METHODS OF USE” (BEIGENE, LTD., priority 2020, published 2023):

How the values were obtained:
[1] = biological target: T1, EGFR L858R/T790M/C797S (BaF3-LTC cells) (Homo sapiens, UniProt P00533, C797S/L858R/T790M); assay: EGFR degradation HTRF assay, BaF3-LTC cells; format: cell-based; conditions: BaF3-LTC cells; for DC50: EGFR degradation, IC50 (DC50) from curve fit, read-out: DC50(nM) BaF3-LTC; for Dmax: maximum percentage of inhibition (degradation), read-out: Dmax (%) BaF3-LTC
T1 construct: expressed in transfected cells; host or cells: BaF3
How it was run: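 EGFR remaining after a 16 h, 37 °C exposure (8 doses, 5-fold steps from 10 uM final, 0.2% DMSO) was quantified by HTRF antibodies in cell lysate. Percent inhibition relative to DMSO control was fitted by four-parameter logistic to give DC50; Dmax denotes maximal degradation.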

[2] = system: EGFR Del19/T790M/C797S (H1975-clone #28); assay: EGFR degradation HTRF assay, H1975-clone #28 DTC cells; format: cell-based; conditions: H1975 # 28 DTC cells; for DC50: EGFR degradation, IC50 (DC50) from curve fit, read-out: DC50(nM) H1975 # 28 DTC; for Dmax (%) H1975 # 28 DTC: maximum percentage of inhibition (degradation)
How it was run: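 H1975 clones stably overexpressing mutant EGFR, with endogenous EGFR knocked out by sgRNA and homozygosity confirmed by sequencing, were treated 16h at 37° C. with compounds in 0.2% DMSO (top final 10 uM, 5-fold, 8 doses). Lysates were read by HTRF (665/620 nm); DC50 and Dmax came from fitting % degradation versus DMSO control.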

T1 sequence (P00533 25-1210 T790M/C797S/L858R): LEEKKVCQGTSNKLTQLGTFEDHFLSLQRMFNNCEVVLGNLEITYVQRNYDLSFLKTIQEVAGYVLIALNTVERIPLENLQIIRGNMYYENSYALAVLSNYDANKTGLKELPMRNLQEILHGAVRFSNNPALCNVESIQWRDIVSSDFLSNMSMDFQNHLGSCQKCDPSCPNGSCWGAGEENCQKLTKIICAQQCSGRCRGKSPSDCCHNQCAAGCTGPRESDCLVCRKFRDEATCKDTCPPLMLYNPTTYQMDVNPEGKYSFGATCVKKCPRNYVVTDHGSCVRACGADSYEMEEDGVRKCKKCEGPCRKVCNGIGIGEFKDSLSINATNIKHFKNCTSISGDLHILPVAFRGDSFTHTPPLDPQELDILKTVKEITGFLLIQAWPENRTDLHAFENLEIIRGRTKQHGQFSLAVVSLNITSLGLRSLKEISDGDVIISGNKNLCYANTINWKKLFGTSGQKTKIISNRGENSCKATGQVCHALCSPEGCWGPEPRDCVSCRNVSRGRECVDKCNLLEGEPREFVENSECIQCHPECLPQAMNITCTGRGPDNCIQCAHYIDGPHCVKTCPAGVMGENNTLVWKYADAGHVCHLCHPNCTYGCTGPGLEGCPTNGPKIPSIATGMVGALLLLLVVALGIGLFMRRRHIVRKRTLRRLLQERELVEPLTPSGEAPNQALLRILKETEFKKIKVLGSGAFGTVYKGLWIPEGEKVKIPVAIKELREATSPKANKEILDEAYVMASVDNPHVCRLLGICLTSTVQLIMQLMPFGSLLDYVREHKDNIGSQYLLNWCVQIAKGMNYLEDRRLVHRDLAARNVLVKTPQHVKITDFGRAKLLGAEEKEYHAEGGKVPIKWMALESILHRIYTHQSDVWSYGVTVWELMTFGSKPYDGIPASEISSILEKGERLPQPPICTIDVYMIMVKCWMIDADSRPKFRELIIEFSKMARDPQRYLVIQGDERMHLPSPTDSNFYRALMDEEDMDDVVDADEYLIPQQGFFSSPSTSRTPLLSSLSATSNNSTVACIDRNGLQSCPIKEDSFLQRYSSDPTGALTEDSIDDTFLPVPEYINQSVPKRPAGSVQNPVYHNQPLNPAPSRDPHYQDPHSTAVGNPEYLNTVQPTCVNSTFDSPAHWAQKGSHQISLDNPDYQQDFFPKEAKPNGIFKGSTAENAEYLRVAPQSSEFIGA

Row | Structure (SMILES) | DC50 [1] [nM] | Dmax [1] [%] | DC50 [2] [nM] | Dmax (%) H1975 # 28 DTC [2]
1 | CCc1cc(Nc2ncc(Br)c(Nc3ccc4ccnnc4c3P(C)(C)=O)n2)c(OC)cc1N1CCC(N2CCN(C(=O)[C@@H]3CCN(c4cc(F)c([C@H]5CCC(=O)NC5=O)c(F)c4)C3)CC2)CC1 [Example 656, (R)-3-(4-((R)-3-(4-(1-(4-((5-bromo-4-((8-(dimethylphosphoryl)cinnolin-7-yl)amino)pyrimidin-2-yl)amino)-2-ethyl-5-methoxyphenyl)piperidin-4-yl)piperazine-1-carbonyl)pyrrolidin-1-yl)-2,6-difluorophenyl)piperidine-2,6-dione] | 5.22 | 83.6 | 1.66 | 83.91%
2 | CCOc1cc(N2CCC(N3CCN(CCc4cc(F)c([C@H]5CCC(=O)NC5=O)c(F)c4)[C@H](CO)C3)CC2)c(CC)cc1Nc1ncc(Br)c(Nc2ccc3nc(CC)ccc3c2P(C)(C)=O)n1 [Example 657, (R)-3-(4-(2-((S)-4-(1-(4-((5-bromo-4-((5-(dimethylphosphoryl)-2-ethylquinolin-6-yl)amino)pyrimidin-2-yl)amino)-5-ethoxy-2-ethylphenyl)piperidin-4-yl)-2-(hydroxymethyl)piperazin-1-yl)ethyl)-2,6-difluorophenyl)piperidine-2,6-dione] | 3.3 | 87.7 | 0.981 | 86.35%
3 | CCc1ccc2c(P(C)(C)=O)c(Nc3nc(Nc4cc(CC)c(N5CCC(N6CCN(C(=O)Cc7c(C)ccc8c7C(C)(C)C(=O)N8C7CCC(=O)NC7=O)CC6)CC5)cc4OC)ncc3Br)ccc2n1 (stereo not drawn) [Example 658, 3-(4-(2-(4-(1-(4-((5-bromo-4-((5-(dimethylphosphoryl)-2-ethylquinolin-6-yl)amino)pyrimidin-2-yl)amino)-2-ethyl-5-methoxyphenyl)piperidin-4-yl)piperazin-1-yl)-2-oxoethyl)-3,3,5-trimethyl-2-oxoindolin-1-yl)piperidine-2,6-dione] | 4.46 | 84.2 | 0.59 | 71.03 7%
4 | CCOc1cc(N2CCC(N3CCN(CCc4cc(F)c5c(c4)C4(CC4)C(=O)N5C4CCC(=O)NC4=O)CC3)CC2)c(CC)cc1Nc1ncc(Br)c(Nc2ccc3nc(CC)ccc3c2P(C)(C)=O)n1 (stereo not drawn) [Example 659, 3-(5′-(2-(4-(1-(4-((5-bromo-4-((5-(dimethylphosphoryl)-2-ethylquinolin-6-yl)amino)pyrimidin-2-yl)amino)-5-ethoxy-2-ethylphenyl)piperidin-4-yl)piperazin-1-yl)ethyl)-7′-fluoro-2′-oxospiro[cyclopropane-1,3′-indolin]-1′-yl)piperidine-2,6-dione] | 17.8 | 73.3 | 2.8 | 77.5%
5 | CCc1cc(Nc2ncc(Br)c(Nc3ccc4nc(C)sc4c3P(C)(C)=O)n2)c(OC)cc1N1CCC(N2CCN(CCc3cc(F)c([C@H]4CCC(=O)NC4=O)c(F)c3)CC2)CC1 [Example 661, (R)-3-(4-(2-(4-(1-(4-((5-bromo-4-((7-(dimethylphosphoryl)-2-methylbenzo[d]thiazol-6-yl)amino)pyrimidin-2-yl)amino)-2-ethyl-5-methoxyphenyl)piperidin-4-yl)piperazin-1-yl)ethyl)-2,6-difluorophenyl)piperidine-2,6-dione] | 8.68 | 85.8 | 0.609 | 87.94%
6 | CCc1cc(Nc2ncc(Br)c(Nc3ccc4nc(C)ccc4c3P(C)(C)=O)n2)c(OC)cc1N1CCC(N2CCN(C(=O)[C@@H]3CN(c4cc(F)c([C@H]5CCC(=O)NC5=O)c(F)c4)CC3(C)C)CC2)CC1 [Example 662, (R)-3-(4-((S)-4-(4-(1-(4-((5-bromo-4-((5-(dimethylphosphoryl)-2-methylquinolin-6-yl)amino)pyrimidin-2-yl)amino)-2-ethyl-5-methoxyphenyl)piperidin-4-yl)piperazine-1-carbonyl)-3,3-dimethylpyrrolidin-1-yl)-2,6-difluorophenyl)piperidine-2,6-dione] | 5.4 | 97 | 2.23 | 89.14%
